{"source": "paper PMC4117522", "about": "“Proteasome Inhibitors Alter Levels of Intracellular Peptides in HEK293T and SH-SY5Y Cells” (PLoS ONE, 2014)", "key": {"[1]": {"test_system": "tripeptidyl peptidase 2 (TPP2)", "assay": "Ala-Ala-Phe-AMC cleavage (TPP2 substrate) in HEK293T cell extracts", "assay_type": "biochemical, human", "conditions": "HEK293T cell extract, up to 5 µM", "experimental": "(§1) All enzyme assays described below were performed in the linear range of the assay, as determined from time-course studies. HEK293T cells were lysed by sonication in 50 mM TrisHCl buffer, pH 7.5, containing 40 mM KCl, 5 mM MgCl2, 0.5 mM ATP, and 1 mM DTT (Buffer 1).\n(§2) To measure TPP2, the fluorescent substrate was Ala-Ala-Phe-AMC. Aminopeptidase (AP) assays were performed with Leu-AMC and Ala-AMC, which detect leucine aminopeptidase (LAP), puromycin-sensitive aminopeptidase (PSAP), and other enzymes. To measure the effect of aminopeptidase/proteasome inhibitors on cleavage of Ala-Ala-Phe-AMC and Leu-AMC, 1∶50 dilution of the cell extract was pre-incubated with the inhibitor and Buffer 1 for 30 min, followed by addition of 100 µM final concentration of the respective substrate. For Ala-AMC, the same dilution of the cell extract was pre-incubated with the inhibitor and 50 mM MOPS buffer, pH 7.5, containing 40 mM KCl, 5 mM MgCl2, 0.5 mM ATP, and 1 mM DTT (Buffer 2), followed by addition of 100 µM final concentration of the substrate. After incubation at 37°C for 1 hour, enzyme activity was quantified by fluorescence measurement of the substrate (380 nm excitation, 460 nm emission).\nEnzyme activity was determined by fluorescence measurement of AMC and expressed as percentage enzyme activity relative to the control lacking inhibitor. […]"}, "[2]": {"molecular_target": "T1, 20S proteasome core particle (Saccharomyces cerevisiae, UniProt P23724+P30656)", "T1 construct": "various proteasome forms purified from yeast; made in house; host or cells: yeast", "assay": "Chymotryptic-like activity of purified yeast 20S core particle (Suc-Leu-Leu-Val-Tyr-AMC)", "assay_type": "biochemical", "experimental": "(§3) Proteasome activity was quantified by measuring the kinetics of fluorescence release (380 nm excitation, 460 nm emission). Fluorescence was measured at an interval of 30 seconds for 30 minutes with 5 seconds of mixing prior to each cycle. Proteasomes were purified as described previously, [35].\n(§4) After incubation for 15 minutes, enzyme activity was measured by monitoring the fluorescence kinetics for the next 30 minutes. […] Enzyme activity is expressed as percent control without inhibitor. Error bars show standard error of the mean; error bars smaller than symbol size are not visible."}, "26S proteasome": {"molecular_target": "26S proteasome (Saccharomyces cerevisiae, UniProt P23724+P30656)", "assay": "Chymotryptic-like activity of purified yeast 26S proteasome (Suc-Leu-Leu-Val-Tyr-AMC)", "assay_type": "biochemical", "conditions": "in the presence of ATP", "experimental": "as §3, §4"}, "HEK293T cells": {"test_system": "HEK293T cells", "conditions": "HEK293T cells; cited from earlier work"}, "[3]": {"test_system": "HEK293T cell aminopeptidase activity (Leu-AMC cleavage)", "assay": "Aminopeptidase assay with Leu-AMC in HEK293T cell extracts", "assay_type": "biochemical, human", "conditions": "HEK293T cell extract, 10 µM inhibitor", "experimental": "as §1, §2\n(§5) Figure 7 Effect of aminopeptidase inhibitors on Ala-AMC and Leu-AMC cleavage. HEK 293T cell extract (panels A–D) or recombinant PSAP (panels E–F) were treated with increasing concentrations of bestatin or puromycin for 30 minutes followed by the addition of substrate and incubation for 1 hour. Enzyme activity was determined by fluorescence measurement of AMC and expressed as percentage enzyme activity relative to the control without inhibitor. (A) Bestatin inhibition of HEK293T cell extract assayed with Ala-AMC. (B) Bestatin inhibition of HEK293T cell extract assayed with Leu-AMC. (C) Puromycin inhibition of HEK293T cell extract assayed with Ala-AMC. (D) Puromycin inhibition of HEK293T cell extract assayed with Leu-AMC. (E) Puromycin inhibition of purified PSAP assayed with Ala-AMC. (F) Puromycin inhibition of purified PSAP assayed with Leu-AMC. Error bars show standard error of mean (n = 4), points without error bars had error ranges smaller than the symbol size. Statistical analysis was performed using Student’s t-test: *, p≤0.05; **, p≤0.01; ***, p≤0.001; ns, no significant difference (p>0.05) versus the control.\n(§6) Figure 8 Effect of proteasome inhibitors on Ala-AMC and Leu-AMC cleavage. HEK 293T cell extract or recombinant PSAP was treated with 10 µM of each of the proteasome inhibitors for 1 hour in addition to a 30 min pre-incubation without the substrate. Enzyme activity was determined by fluorescence measurement of AMC and expressed as percentage enzyme activity relative to the control without inhibitor. Panels A and B represent the effect of proteasome inhibitors on cleavage of Ala-AMC and Leu-AMC respectively, in HEK293T cell extract. […] Error bars show standard error of mean (n = 4). Statistical analysis was performed using Student’s t-test: *, p≤0.05; **, p≤0.01; ***, p≤0.001; ns, no significant difference (p>0.05) versus the control."}, "[4]": {"molecular_target": "T2, recombinant human puromycin-sensitive aminopeptidase (PSAP, rhNPEPPS) (Homo sapiens, UniProt P55786)", "T2 construct": "purchased R&D Systems", "T2 sequence (P55786 whole entry)": "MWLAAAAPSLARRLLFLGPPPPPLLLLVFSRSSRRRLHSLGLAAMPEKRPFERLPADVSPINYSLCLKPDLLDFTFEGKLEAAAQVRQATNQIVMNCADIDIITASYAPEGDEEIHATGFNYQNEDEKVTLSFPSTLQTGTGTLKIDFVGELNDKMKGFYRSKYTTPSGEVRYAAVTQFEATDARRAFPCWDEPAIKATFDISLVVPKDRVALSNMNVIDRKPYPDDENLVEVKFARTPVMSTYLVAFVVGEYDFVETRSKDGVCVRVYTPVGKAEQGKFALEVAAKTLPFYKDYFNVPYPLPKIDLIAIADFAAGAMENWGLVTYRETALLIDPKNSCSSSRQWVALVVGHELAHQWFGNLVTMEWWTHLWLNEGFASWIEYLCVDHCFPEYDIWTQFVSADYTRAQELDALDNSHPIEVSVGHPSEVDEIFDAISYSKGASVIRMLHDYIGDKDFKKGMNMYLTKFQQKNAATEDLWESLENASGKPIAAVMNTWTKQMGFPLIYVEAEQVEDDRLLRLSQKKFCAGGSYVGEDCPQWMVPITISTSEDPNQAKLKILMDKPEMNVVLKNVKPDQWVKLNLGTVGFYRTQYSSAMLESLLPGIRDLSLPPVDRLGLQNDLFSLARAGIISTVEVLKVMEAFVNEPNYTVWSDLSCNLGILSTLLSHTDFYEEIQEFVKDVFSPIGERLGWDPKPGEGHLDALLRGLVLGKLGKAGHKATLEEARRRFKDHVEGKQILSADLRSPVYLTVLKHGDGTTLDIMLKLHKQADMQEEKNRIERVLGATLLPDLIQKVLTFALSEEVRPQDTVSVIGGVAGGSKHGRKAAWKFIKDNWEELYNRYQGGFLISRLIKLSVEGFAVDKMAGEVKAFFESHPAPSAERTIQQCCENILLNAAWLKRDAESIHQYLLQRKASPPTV", "assay": "Cleavage of Leu-AMC and Ala-AMC by purified recombinant PSAP", "assay_type": "biochemical", "conditions": "10 µM inhibitor, Ala-AMC", "experimental": "To measure the effect of inhibitors on cleavage of Leu-AMC and Ala-AMC by purified PSAP, recombinant human PSAP (rhNPEPPS, R&D Systems) was diluted 1∶2000 in Buffer 2 containing 0.1 mg/ml BSA. The enzyme was pre-incubated with the inhibitor and Buffers 1 or 2, followed by addition of 100 µM final concentration of Leu-AMC (to the mix containing Buffer 1) and Ala-AMC (to the mix containing Buffer 2). After incubation at 37°C for 1 hour, PSAP activity was quantified by fluorescence measurement of the substrate (380 nm excitation, 460 nm emission).\nas §5, §6"}, "[5]": {"test_system": "HEK293T cell aminopeptidase activity (Ala-AMC cleavage)", "assay": "Aminopeptidase assay with Ala-AMC in HEK293T cell extracts", "assay_type": "biochemical, human", "conditions": "HEK293T cell extract; for Enzyme activity (% control with no inhibitor): Ala-AMC", "experimental": "as §1, §2, §5, §6"}, "[6]": {"molecular_target": "T3, Blm10-activated 20S core particle (Saccharomyces cerevisiae, UniProt P23724+P30656)", "T3 construct": "various proteasome forms purified from yeast; made in house; host or cells: yeast", "assay": "Chymotryptic-like activity of purified yeast Blm10-20S (Suc-Leu-Leu-Val-Tyr-AMC)", "assay_type": "biochemical", "conditions": "in the absence of ATP", "experimental": "as §3, §4"}, "[7]": {"test_system": "open gate mutant of the 20S core particle", "assay": "Chymotryptic-like activity of open gate mutant of yeast 20S (Suc-Leu-Leu-Val-Tyr-AMC)", "assay_type": "biochemical", "conditions": "in the absence of ATP", "experimental": "as §3, §4"}, "SH-SY5Y cells": {"test_system": "SH-SY5Y cells", "conditions": "cited from earlier work"}}}
{"molecule": "CC(C)C[C@H](NC(=O)[C@H](Cc1ccccc1)NC(=O)c1cnccn1)B(O)O", "note": "[bortezomib]", "values": [{"measurement": "inhibition of Ala-Ala-Phe-AMC cleavage", "setting": "[1]", "value": "did not show significant inhibition"}, {"measurement": "inhibition of chymotryptic-like activity, compared among 20S forms", "setting": "[2]; in the absence of ATP", "value": "comparable potency"}, {"measurement": "inhibition of chymotryptic-like activity, 20S compared with 26S", "setting": "[2]; in the presence of ATP", "value": "comparable inhibition"}, {"measurement": "inhibition of chymotryptic-like activity, 26S compared with 20S", "setting": "26S proteasome", "value": "comparable inhibition"}, {"measurement": "change in levels of intracellular peptides (peptidome)", "setting": "HEK293T cells", "value": "increase in the levels of most intracellular peptides"}, {"measurement": "effect on cleavage of Leu-AMC", "setting": "[3]", "value": "partially inhibited"}, {"measurement": "effect on cleavage of Ala-AMC by purified PSAP", "setting": "[4]", "value": "no significant effect"}, {"measurement": "effect on cleavage of Ala-AMC", "setting": "[5]; 10 µM inhibitor", "value": "partially inhibited"}, {"measurement": "Enzyme activity (% control with no inhibitor)", "setting": "[5]; bestatin 50 µM together with bortezomib 10 µM", "value": "14.8±0.6 % control with no inhibitor"}, {"measurement": "Enzyme activity (% control with no inhibitor)", "setting": "[5]; bestatin 50 µM together with bortezomib 50 µM", "value": "14.8±0.8 % control with no inhibitor"}, {"measurement": "inhibition of chymotryptic-like activity, compared among 20S forms", "setting": "[6]", "value": "comparable potency"}, {"measurement": "inhibition of chymotryptic-like activity, compared among 20S forms", "setting": "[7]", "value": "comparable potency"}, {"measurement": "change in levels of intracellular peptides (peptidome)", "setting": "SH-SY5Y cells", "value": "increase in the levels of most intracellular peptides"}]}
